Molecules are shown by their SMILES. “And” between values parts separate entries of the source, which are not always exact repeats. Identical values can stand only once. The source made the active and inactive calls.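 The calls were made as follows: active = fitted AC50 no higher than twice the top valid dose tested for that sample; inconclusive = flat curve between -30 and -70% activity, or poor fit; inactive = the rest.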

One experiment addresses PglD UDP-4-amino-sugar N-acetyltransferase (Campylobacter jejuni). The experiment can be described thus: PglD acetyltransferase inhibitors, dose response, biochemical, DTNB absorbance, dry powder samples, set 5 (AID 743125). Conditions: purified PglD, DTNB absorbance 412 nm, CoA release.
In the case of `Cc1c(C(=O)O)sc2nc(/C=C/c3cccc(N)c3)[nH]c(=O)c12`, the AC50 is 16.9 µM.

Turning to `Cc1c(C(=O)O)sc2nc(/C=C/c3ccc4[nH]ccc4n3)[nH]c(=O)c12`, the AC50 is 7 µM.

Consider `Cc1c(C(=O)O)sc2nc(/C=C/c3cccc(OC(F)(F)F)c3)[nH]c(=O)c12`, for which the AC50 was > 39 µM (inactive).

`Cc1c(C(=O)O)sc2nc(/C=C/c3cccc(O)c3)[nH]c(=O)c12`: the half-maximal activity concentration (AC50) is 27.6 µM and 3.61 µM.

Consider `Cc1c(C(=O)O)sc2nc(/C=C/c3ccccc3O)[nH]c(=O)c12`, for which the concentration at half-maximal activity (AC50) was 24.9 µM.

On to `Cc1c(C(=O)O)sc2nc(/C=C/c3cccc(=O)[nH]3)[nH]c(=O)c12`, for which the concentration at half-maximal activity (AC50) was 4.69 µM.

On to `COc1cccc(/C=C/c2nc3sc(C(=O)O)c(C)c3c(=O)[nH]2)c1`, for which the AC50 is 11.5 µM.

Turning to `Cc1c(C(=O)O)sc2nc(/C=C/c3ccccn3)[nH]c(=O)c12`, the AC50 is 7.09 µM.

In the case of `Cc1c(C(=O)O)sc2nc(/C=C/c3cccc([N+](=O)[O-])c3)[nH]c(=O)c12`, the AC50 is > 39 µM (inactive).

`Cc1c(C(=O)O)sc2nc(/C=C/c3cccc(N4CCOCC4)n3)[nH]c(=O)c12`: the AC50 is > 20 µM (inactive).

The experiment is the same for the next values; noted with them: purified PglD, DTNB absorbance 412 nm, CoA release; at 1 µM (top of the series).
As for `Cc1c(C(=O)O)sc2nc(/C=C/c3ccc(O)cn3)[nH]c(=O)c12`, the “activity change, negative = inhibition” value is “inactive”.

Still in this experiment, the particulars now being: purified PglD, DTNB absorbance 412 nm, CoA release; at 10 µM (top of the series).
Take `Cc1c(C(=O)O)sc2nc(/C=C/c3cccnc3N)[nH]c(=O)c12`: the “activity change, negative = inhibition” value is “inactive”.

The same experiment, now with this note: purified PglD, DTNB absorbance 412 nm, CoA release; at 38 µM (top of the series).
In the case of `Cc1c(C(=O)O)sc2nc(/C=C/c3cccc(N4CCNCC4)c3)[nH]c(=O)c12`, the “activity change, negative = inhibition” value was “inactive”.

The record behind these values is PubChem BioAssay AID743125 (Broad Institute, 2013).
